Data taken from patent publication US20260042762A1 (Kymera Therapeutics, Inc., priority 2018, published 2026).

Each compound was assayed against T1, MerTK (Homo sapiens, UniProt Q12866) (assay: MerTk degradation in Jurkat cells (Western blot)). Conditions: 0.001-1 μM, 4 hour-incubation at 37° C., read-out: Jurkat Max % MerTK Degradation.
T1 construct: endogenous in cells; host or cells: Jurkat cells
T1 sequence (Q12866 21-999): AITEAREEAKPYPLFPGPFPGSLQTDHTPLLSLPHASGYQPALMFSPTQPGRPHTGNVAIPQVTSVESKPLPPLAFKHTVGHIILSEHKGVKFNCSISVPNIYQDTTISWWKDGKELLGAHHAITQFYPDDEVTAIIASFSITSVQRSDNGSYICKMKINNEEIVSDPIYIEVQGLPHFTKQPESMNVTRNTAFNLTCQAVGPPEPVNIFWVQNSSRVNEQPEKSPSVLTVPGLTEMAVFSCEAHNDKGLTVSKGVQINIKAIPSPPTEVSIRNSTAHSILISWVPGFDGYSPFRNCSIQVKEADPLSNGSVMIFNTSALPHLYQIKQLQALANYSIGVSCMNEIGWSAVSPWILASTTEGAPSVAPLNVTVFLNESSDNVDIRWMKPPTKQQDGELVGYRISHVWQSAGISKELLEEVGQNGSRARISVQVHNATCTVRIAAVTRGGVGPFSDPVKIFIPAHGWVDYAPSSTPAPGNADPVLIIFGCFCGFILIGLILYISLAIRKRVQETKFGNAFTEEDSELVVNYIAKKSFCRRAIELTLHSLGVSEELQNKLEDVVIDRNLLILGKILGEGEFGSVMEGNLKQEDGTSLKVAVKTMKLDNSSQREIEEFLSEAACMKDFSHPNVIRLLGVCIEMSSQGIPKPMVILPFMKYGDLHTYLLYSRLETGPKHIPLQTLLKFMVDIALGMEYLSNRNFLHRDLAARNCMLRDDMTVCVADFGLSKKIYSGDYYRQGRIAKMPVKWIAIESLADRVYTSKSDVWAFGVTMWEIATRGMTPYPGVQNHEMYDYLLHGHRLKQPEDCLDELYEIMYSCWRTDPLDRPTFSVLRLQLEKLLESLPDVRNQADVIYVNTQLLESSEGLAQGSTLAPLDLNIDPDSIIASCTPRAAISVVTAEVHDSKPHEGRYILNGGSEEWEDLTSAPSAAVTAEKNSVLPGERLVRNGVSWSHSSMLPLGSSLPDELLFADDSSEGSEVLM
Type: cell-based
Procedure: Compounds were reconstituted in DMSO to make 10 mM stock solutions. […] Cells were seeded into 6-well plates with about 5×10^6 cells per well. 2 μL of diluted compounds were added to cells to the final concentration of 0.001-1 μM. After a 4 hour-incubation at 37° C., cells were collected into 2 mL Eppendorf tubes and centrifuged at 1,000 rpm for 5 min. The cell pellets were washed with DPBS (1×) once and resuspended in 60 μL RIPA lysis buffer with Halt Protease and Phophatase Inhibitor Cocktail. The cells were lysed on ice for 10 min, then centrifuged at 14,000 rpm for 10 min at 4° C. and the supernatants were collected for western blots.
The protein concentration of cell lysates was quantified with Pierce™ BCA Protein Assay Kit. […] BCA working reagents were prepared by mixing BCA reagent A with reagent B in 50: 1 ratio. 200 μL of the BCA working reagents were added to 25 μL of BCA standard or cell lysates in microplate, and mixed thoroughly on a plate shaker for 30 seconds. After incubation at 37° C. for 30 min, the absorbance of samples at 562 nm were measured with EnVision Plate Reader.
Protein lysates were prepared in NuPAGE™ LDS sample buffer and NuPAGE™ sample reducing agent, and incubated at 95° C. for 5 min. […] The proteins were transferred to low fluorescence PVDF membranes using the Trans-Blot Turbo Transfer System. Membranes were then blocked in Odyssey blocking buffer at RT for 1 h followed by primary incubation at 4° C. overnight. The primary antibodies were MerTK rabbit monoclonal antibody and actin mouse monoclonal antibody. Membranes were washed three times with TBST (1×), and then incubated with IR Dye 800 CW Goat anti-rabbit and IR Dye 700 CW Goat anti-mouse secondary antibodies in 1:10,000 dilution at RT for 1 h. The Western blot images were obtained using Odyssey Imaging System.

SMILES | Dmax
CN1CCN(Cc2ccc(-c3ccc(CO[C@H]4CCC[C@@H]4NC(=O)c4cc(-c5cnn(CCCCC(=O)NCCCOCCCc6ccc7c(c6)n(C)c(=O)n7C6CCC(=O)NC6=O)c5)cnc4N)cc3)cc2)CC1 (some centres unmarked) [I-39, formic acid] | > 50%

Same assay, conditions: Jurkat, 4 h, 0.001-1 μM, 4 hour-incubation at 37° C., read-out: Jurkat Max % MerTK Degradation

Dmax | SMILES
> 50% | CCCCNc1ncc2c(-c3ccc(CN4CCN(CCOCCOCCCc5ccc6c(c5)n(C)c(=O)n6[C@H]5CCC(=O)NC5=O)CC4)cc3)cn([C@H]3CC[C@H](O)CC3)c2n1 [I-42, 3-[5-[3-(2-[2-[4-([4-[2-(butylamino)-7-[trans-4-hydroxycyclohexyl]-7H-pyrrolo[2,3-d]pyrimidin-5-yl]phenyl]methyl)piperazin-1-yl]ethoxy]ethoxy)propyl]-3-methyl-2-oxo-2,3-dihydro-1H-1,3-benzodiazol-1-yl]piperidine-2,6-dione; formic acid]
> 50% | CCCCNc1ncc2c(-c3ccc(CN4CCN(CCOCCCc5ccc6c(c5)n(C)c(=O)n6[C@H]5CCC(=O)NC5=O)CC4)cc3)cn([C@H]3CC[C@H](O)CC3)c2n1 [I-43, 3-[5-(3-[2-[4-([4-[2-(butylamino)-7-[trans-4-hydroxycyclohexy1]-7H-pyrrolo[2,3-d]pyrimidin-5-yl]phenyl]methyl)piperazin-1-y1]ethoxy]propyl)-3-methyl-2-oxo-2,3-dihydro-1H-1,3-benzodiazol-1-yl]piperidine-2,6-dione; formic acid]
< 20% | CCCCNc1ncc2c(-c3ccc(CN4CCN(CCCc5ccc6c(c5)n(C)c(=O)n6[C@H]5CCC(=O)NC5=O)CC4)cc3)cn([C@H]3CC[C@H](O)CC3)c2n1 [I-44, 3-(5-[3-[4-([4-[2-(Butylamino)-7-[trans-4-hydroxycyclohexyl]-7H-pyrrolo[2,3-d]pyrimidin-5-yl]phenyl]methyl)piperazin-1-yl]propyl]-3-methyl-2-oxo-2,3-dihydro-1H-1,3-benzodiazol-1-y1)piperidine-2,6-dione; formic acid]
> 50% | CCCCNc1ncc2c(-c3ccc(CNCCOCCOCCCc4ccc5c(c4)n(C)c(=O)n5[C@H]4CCC(=O)NC4=O)cc3)cn([C@H]3CC[C@H](O)CC3)c2n1 [I-45, 3-[5-[3-(2-[2-[([4-[2-(butylamino)-7-[trans-4-hydroxycyclohexy1]-7H-pyrrolo[2,3-d]pyrimidin-5-yl]phenyl]methyl)amino]ethoxy]ethoxy)propyl]-3-methyl-2-oxo-2,3-dihydro-1H-1,3-benzodiazol-1-y1]piperidine-2,6-dione; formic acid]
> 50% | CCCCNc1ncc2c(-c3ccc(CNCCCc4ccc5c(c4)n(C)c(=O)n5[C@H]4CCC(=O)NC4=O)cc3)cn([C@H]3CC[C@H](O)CC3)c2n1 [I-46, 3-(5-[3-[([4-[2-(butylamino)-7-[trans-4-hydroxycyclohexyl]-7H-pyrrolo[2,3-d]pyrimidin-5-yl]phenyl]methyl)amino]propyl]-3-methyl-2-oxo-2,3-dihydro-1H-1,3-benzodiazol-1-yl)piperidine-2,6-dione; formic acid]
> 50% | Cn1c(=O)n([C@H]2CCC(=O)NC2=O)c2ccc(CCCOCCOCCOCCNCc3ccc(-c4cn([C@H]5CC[C@H](O)CC5)c5nc(NCCC(F)(F)F)ncc45)cc3)cc21 [I-47, 3-[3-methyl-2-oxo-5-[1-(4-[7-[trans-4-hydroxycyclohexy1]-2-[(3,3,3-trifluoropropyl)amino]-7H-pyrrolo[2,3-d]pyrimidin-5-yl]phenyl)-5,8,11-trioxa-2-azatetradecan-14-y1]-2,3-dihydro-1H-1,3-benzodiazol-1-yl]piperidine-2,6-dione]
> 50% | Cn1c(=O)n([C@H]2CCC(=O)NC2=O)c2ccc(CCCOCCOCCNCc3ccc(-c4cn([C@H]5CC[C@H](O)CC5)c5nc(NCCC(F)(F)F)ncc45)cc3)cc21 [I-48, 3-(3-methyl-2-oxo-5-[3-[2-(2-[[(4-[7-[trans-4-hydroxycyclohexyl]-2-[(3,3,3-trifluoropropyl)amino]-7H-pyrrolo[2,3-d]pyrimidin-5-y1]phenyl)methyl]amino]ethoxy)ethoxy]propyl]-2,3-dihydro-1H-1,3-benzodiazol-1-y1)piperidine-2,6-dione]
